Laboratory results: patent US20240018611A1, “IMMUNE MOLECULE VIRUS PARTICLE DETECTION KIT” (priority 2021, published 2024)

Tests used:
HBV [1] = test: HBV DNA in supernatant of ETV-treated HepAD38 cells (immune capture of virus particles + qPCR); type: cell-based, hepatitis B virus (HBV)
Description: (§1) The inventor selects the supernatant of HBV-secreting cells ([…] and HepAD38) for testing and verification. HepG2.2.15 and HepAD38 are the two cell lines that are commonly used in the laboratory to stably express HBV, and entecavir (ETV) is the first-line drug in clinical treatment of hepatitis B at present. The inventor uses different concentration gradients of ETV (0.1 μM, 1 μM, 10 μM, PBS as control group). Then, the virus particles are captured by virus particle-antibody (the envelope PreS1 monoclonal antibody and the core particle HBc monoclonal antibody)-biotin-streptavidin-magnetic beads, and the genomic DNA of HBV in the corresponding virus particles is detected.
(§2) In order to study the dynamic changes of HBV DNA with different components, two cell lines, HepG2.2.15 and HepAD38, which stably express HBV, are pretreated with different concentration gradients of ETV (0.1 μM, 1 μM, 10 μM and a PBS control group), and the supernatant is discarded after 24 hours, and replaced with fresh Dulbecco's modified eagle medium (DMEM) and ETV with different concentration gradients. After 72 hours, the supernatant is transferred to an EP tube, and the virus particles in the supernatant are captured by PreS1 antibody-magnetic beads and HBc antibody-magnetic beads respectively, and the captured products are detected by qPCR.

HBV [2] = test: HBV DNA in supernatant of ETV-treated HepG2.2.15 cells (immune capture of virus particles + qPCR); type: cell-based, hepatitis B virus (HBV)
Description: as §1, §2
The above research results mean that the capture method can separate and capture virus particles in cell supernatant. […] The same conclusion is obtained in HepAD38 cell experiment (FIGS. 10A-10B).

[3] = ETV 0.1 μM, 1 μM, 10 μM, PBS control, antibody-biotin-streptavidin-magnetic bead capture, FIGS. 2A-2B

C=C1[C@H](CO)[C@@H](O)C[C@@H]1n1cnc2c(=O)[nH]c(N)nc21 [ETV, entecavir]
viral genomic DNA (total, complete virus particles, core particles) in cell supernatant versus ETV concentration (HBV [1]; [3]): The higher the concentration of ETV, the lower the viral genomic DNA detected by the three methods
total HBV genomic DNA, complete virus particle genomic DNA and virus core particle DNA over time (HBV [1]; ETV 1 uM, FIGS. 2C-2D): all decreased rapidly in two days
viral genomic DNA (total, complete virus particles, core particles) in cell supernatant versus ETV concentration (HBV [2]; [3]): The higher the concentration of ETV, the lower the viral genomic DNA detected by the three methods
copies of HBV DNA in the supernatant (HBV [2]; ETV 0.1 μM, 1 μM, 10 μM, supernatant after 72 hours, PreS1/HBc antibody-magnetic bead capture, FIGS. 9A-9B): decreased in a dose-dependent manner
total HBV genomic DNA, complete virus particle genomic DNA and virus core particle DNA over time (HBV [2]; ETV 1 uM, FIGS. 2C-2D): all decreased rapidly in two days
